Data from patent US11104682B2, “Salts of TAM inhibitors” (Incyte Corporation, priority 2017, dated 2021).
Where a name gives a salt, the structure may show the parent alone. Values belong to the compound of their own block, whether it stands above or below them.

How the values were obtained:
[1] = target: c-Mer (Homo sapiens (Human), UniProt Q12866); experiment: TAM Enzymatic Assay (HTRF), c-Mer; format: biochemical; conditions: 0.0625 nM c-Mer, ATP
Procedure: (§1) The kinase assay buffer contained 50 mM HEPES, pH7.5, 10 mM MgCl2, 1 mM EGTA, 0.01% NP-40 and 2 mM DTT. 0.1 ul test compounds dissolved in DMSO were transferred from compound plates to white 384-well assay plates (Greiner […] plates). The final concentration of DMSO was 1.25%. Enzyme solutions of 5.1 nM phosphor-Axl, or 0.0625 nM c-Mer (Carna Biosciences, 08-108), or 0.366 nM Tyro3 (Life Technologies, PR7480A) were prepared in assay buffer. A 1 mM stock solution of peptide substrate Biotin-[…]-amide SEQ ID NO: 1 (Quality Controlled Biochemicals, MA) dissolved in DMSO was diluted to 1 uM in assay buffer containing 2000 uM ATP. 4 ul enzyme solution (or assay buffer for the enzyme blank) was added to the appropriate wells in each plate, and then 4 ul/well substrate solution was added to initiate the reaction. The plate was protected from light and incubated at room temperature for 60 min. […] The plate was incubated for 1 h at room temperature, and HTRF (homogenous time resolved fluorescence) signal was measured on a PHERAstar FS plate reader (BMG labtech). Percentage of inhibition was calculated for each concentration and IC50 value was generated from curve fitting with GraphPad Prism software.

[2] = target: Axl (Homo sapiens (Human), UniProt P30530); experiment: TAM Enzymatic Assay (HTRF), phosphor-Axl; format: biochemical; conditions: 5.1 nM phosphor-Axl, ATP
Sequence of Axl (P30530 26-894): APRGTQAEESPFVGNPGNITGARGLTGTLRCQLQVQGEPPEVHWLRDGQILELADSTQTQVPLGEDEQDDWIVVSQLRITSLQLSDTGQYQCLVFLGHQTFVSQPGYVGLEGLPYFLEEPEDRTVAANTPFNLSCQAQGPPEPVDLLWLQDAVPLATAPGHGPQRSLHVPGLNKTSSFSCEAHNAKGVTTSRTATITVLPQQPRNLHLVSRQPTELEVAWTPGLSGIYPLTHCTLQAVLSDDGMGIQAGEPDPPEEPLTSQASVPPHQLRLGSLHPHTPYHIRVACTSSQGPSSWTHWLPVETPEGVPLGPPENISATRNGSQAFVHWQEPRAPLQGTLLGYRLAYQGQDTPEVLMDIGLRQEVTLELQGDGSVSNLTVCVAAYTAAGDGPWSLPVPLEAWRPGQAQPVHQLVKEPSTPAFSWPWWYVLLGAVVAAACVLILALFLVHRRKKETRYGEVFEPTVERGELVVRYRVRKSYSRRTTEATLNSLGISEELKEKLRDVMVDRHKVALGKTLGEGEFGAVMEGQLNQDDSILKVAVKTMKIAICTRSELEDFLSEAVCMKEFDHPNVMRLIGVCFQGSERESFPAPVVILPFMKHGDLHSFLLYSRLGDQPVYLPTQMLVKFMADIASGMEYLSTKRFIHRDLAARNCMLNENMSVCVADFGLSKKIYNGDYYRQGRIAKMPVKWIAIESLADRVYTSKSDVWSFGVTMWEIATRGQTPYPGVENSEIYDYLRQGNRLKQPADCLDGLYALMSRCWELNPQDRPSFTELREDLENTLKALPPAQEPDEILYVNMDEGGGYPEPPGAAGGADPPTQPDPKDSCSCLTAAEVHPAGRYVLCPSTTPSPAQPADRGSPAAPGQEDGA
Procedure: Autophosphorylation of Axl was carried out by incubating the recombinant Axl protein (Life Technologies, PV4275) in buffer containing 50 mM Tris, pH7.5, 0.2 mg/ml Axl, 5 mM ATP, 20 mM MgCl2 and 2 mM DTT at room temperature for 1 hour.
as §1, with “reaction.” for “reaction. The plate was protected from light and incubated at room temperature for 60 min.”

[3] = Solubility of Compound I maleate salt in solvents (saturated solution, HPLC); format: physicochemical; conditions: thermodynamic from solid; for solubility at 48 h: 25 °C, 25±1° C.; for solubility at 24 h: 50 °C, 50±1° C.
[4] = target: Tyro3 (Homo sapiens (Human), UniProt Q06418); experiment: TAM Enzymatic Assay (HTRF), Tyro3; format: biochemical; conditions: 0.366 nM Tyro3, ATP
Sequence of Tyro3 (Q06418 41-890): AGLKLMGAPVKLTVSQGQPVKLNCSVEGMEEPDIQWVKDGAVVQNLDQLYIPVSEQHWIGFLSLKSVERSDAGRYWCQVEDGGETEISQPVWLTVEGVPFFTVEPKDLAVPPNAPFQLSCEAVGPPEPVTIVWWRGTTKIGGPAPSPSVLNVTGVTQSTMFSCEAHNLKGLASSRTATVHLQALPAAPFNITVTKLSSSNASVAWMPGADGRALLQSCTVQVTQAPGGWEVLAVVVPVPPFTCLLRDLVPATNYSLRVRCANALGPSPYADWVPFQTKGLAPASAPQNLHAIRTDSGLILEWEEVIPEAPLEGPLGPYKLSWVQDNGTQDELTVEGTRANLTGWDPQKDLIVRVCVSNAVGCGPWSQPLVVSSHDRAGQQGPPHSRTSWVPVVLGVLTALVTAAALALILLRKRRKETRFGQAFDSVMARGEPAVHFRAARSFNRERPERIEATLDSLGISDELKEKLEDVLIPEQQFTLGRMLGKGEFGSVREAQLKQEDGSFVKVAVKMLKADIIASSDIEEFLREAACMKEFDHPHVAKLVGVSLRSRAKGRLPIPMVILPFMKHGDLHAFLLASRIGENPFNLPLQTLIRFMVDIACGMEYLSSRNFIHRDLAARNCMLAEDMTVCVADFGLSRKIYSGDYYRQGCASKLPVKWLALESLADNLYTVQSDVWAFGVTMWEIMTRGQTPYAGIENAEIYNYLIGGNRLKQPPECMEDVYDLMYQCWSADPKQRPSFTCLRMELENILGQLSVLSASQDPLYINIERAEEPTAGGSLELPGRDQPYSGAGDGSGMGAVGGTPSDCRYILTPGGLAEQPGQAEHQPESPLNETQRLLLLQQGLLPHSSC
Procedure: as §1

[5] = organic solvent or mixture, solvent 1,4-Dioxane
[6] = organic solvent or mixture, solvent 1-Propanol
[7] = organic solvent or mixture, solvent 2-Methoxyethanol
[8] = organic solvent or mixture, solvent Acetone
[9] = organic solvent or mixture, solvent Chloroform
[10] = organic solvent or mixture, solvent DMF
[11] = organic solvent or mixture, solvent DMSO
[12] = organic solvent or mixture, solvent Dichloromethane
[13] = organic solvent or mixture, solvent EtOAc
[14] = organic solvent or mixture, solvent EtOH
[15] = organic solvent or mixture, solvent Ethyl formate
[16] = organic solvent or mixture, solvent IPA
[17] = organic solvent or mixture, solvent IPAc
[18] = organic solvent or mixture, solvent MEK
[19] = organic solvent or mixture, solvent MIBK
[20] = organic solvent or mixture, solvent MTBE
[21] = organic solvent or mixture, solvent MeCN
[22] = organic solvent or mixture, solvent Methanol
[23] = organic solvent or mixture, solvent THF
[24] = organic solvent or mixture, solvent Toluene
[25] = organic solvent or mixture, solvent n-BuOH

Sequence of c-Mer (Q12866 21-999): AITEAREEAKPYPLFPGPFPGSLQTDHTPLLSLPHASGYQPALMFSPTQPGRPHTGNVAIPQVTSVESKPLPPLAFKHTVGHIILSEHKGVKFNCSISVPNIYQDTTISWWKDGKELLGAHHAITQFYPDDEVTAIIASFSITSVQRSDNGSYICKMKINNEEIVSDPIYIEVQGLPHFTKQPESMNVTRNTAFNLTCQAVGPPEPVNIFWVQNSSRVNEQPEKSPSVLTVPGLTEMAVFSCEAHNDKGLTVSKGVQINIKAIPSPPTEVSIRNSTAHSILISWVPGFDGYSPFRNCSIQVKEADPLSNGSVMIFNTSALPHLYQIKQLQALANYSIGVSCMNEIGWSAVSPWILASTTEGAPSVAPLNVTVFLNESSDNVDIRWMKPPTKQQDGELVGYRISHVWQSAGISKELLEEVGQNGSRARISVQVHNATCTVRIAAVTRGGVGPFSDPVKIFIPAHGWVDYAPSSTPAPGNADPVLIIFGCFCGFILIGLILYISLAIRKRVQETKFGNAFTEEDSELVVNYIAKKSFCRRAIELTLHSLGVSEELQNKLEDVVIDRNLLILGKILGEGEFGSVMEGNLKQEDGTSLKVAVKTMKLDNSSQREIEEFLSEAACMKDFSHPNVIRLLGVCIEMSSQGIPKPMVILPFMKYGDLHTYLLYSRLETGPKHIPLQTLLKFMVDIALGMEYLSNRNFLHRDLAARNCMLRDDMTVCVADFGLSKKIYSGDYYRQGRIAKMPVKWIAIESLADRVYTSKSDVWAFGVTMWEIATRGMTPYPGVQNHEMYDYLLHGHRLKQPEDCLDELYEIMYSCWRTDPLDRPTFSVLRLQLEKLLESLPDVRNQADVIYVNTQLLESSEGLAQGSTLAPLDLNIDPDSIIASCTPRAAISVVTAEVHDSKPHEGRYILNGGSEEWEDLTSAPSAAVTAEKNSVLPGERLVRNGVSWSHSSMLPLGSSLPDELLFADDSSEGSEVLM

- IC50 [1]: ≤ 5 nM
- IC50 [2]: ≤ 5 nM
- solubility at 48 h [3, 5]: 2310 µg/mL
- solubility at 48 h [3, 6]: 440 µg/mL
- solubility at 48 h ([3]; organic solvent or mixture, solvent 2% DCM/98% MeOH (V/V)): 1460 µg/mL
- solubility at 48 h [3, 7]: 5960 µg/mL
- solubility at 48 h ([3]; organic solvent or mixture, solvent 10% DCM/90% MeOH (V/V)): 1880 µg/mL
- solubility at 48 h [3, 8]: 1680 µg/mL
- solubility at 48 h [3, 9]: 6120 µg/mL
- solubility at 48 h ([3]; organic solvent or mixture, solvent DCM/MeOH(2/1)): > 50000 µg/mL
- solubility at 48 h [3, 10]: > 50000 µg/mL
- solubility at 48 h [3, 11]: > 50000 µg/mL
- solubility at 48 h [3, 12]: 24400 µg/mL
- solubility at 48 h [3, 13]: 180 µg/mL
- solubility at 48 h [3, 14]: 650 µg/mL
- solubility at 48 h [3, 15]: 680 µg/mL
- solubility at 48 h [3, 16]: 160 µg/mL
- solubility at 48 h [3, 17]: 270 µg/mL
- solubility at 48 h [3, 18]: 280 µg/mL
- solubility at 48 h [3, 19]: 430 µg/mL
- solubility at 48 h [3, 20]: 80 µg/mL
- solubility at 48 h [3, 21]: 280 µg/mL
- solubility at 48 h [3, 22]: 1640 µg/mL
- solubility at 48 h [3, 23]: 920 µg/mL
- solubility at 48 h [3, 24]: 180 µg/mL
- solubility at 48 h [3, 25]: 210 µg/mL
- solubility at 48 h ([3]; solvent Water): 20 µg/mL
- solubility at 24 h [3, 5]: 4620 µg/mL
- solubility at 24 h [3, 6]: 1310 µg/mL
- solubility at 24 h [3, 7]: 14800 µg/mL
- solubility at 24 h [3, 8]: 3050 µg/mL
- solubility at 24 h [3, 9]: 13700 µg/mL
- solubility at 24 h [3, 10]: > 50000 µg/mL
- solubility at 24 h [3, 11]: > 50000 µg/mL
- solubility at 24 h [3, 12]: 33700 µg/mL
- solubility at 24 h [3, 13]: 400 µg/mL
- solubility at 24 h [3, 14]: 1930 µg/mL
- solubility at 24 h [3, 15]: 990 µg/mL
- solubility at 24 h [3, 16]: 680 µg/mL
- solubility at 24 h [3, 17]: 330 µg/mL
- solubility at 24 h [3, 18]: 2190 µg/mL
- solubility at 24 h [3, 19]: 740 µg/mL
- solubility at 24 h [3, 20]: 100 µg/mL
- solubility at 24 h [3, 21]: 680 µg/mL
- solubility at 24 h [3, 22]: 3090 µg/mL
- solubility at 24 h [3, 23]: 1630 µg/mL
- solubility at 24 h [3, 24]: 200 µg/mL
- solubility at 24 h [3, 25]: 1100 µg/mL
- solubility at 24 h ([3]; solvent Water): 40 µg/mL
- IC50 [4]: 10 to 100 nM
SMILES: CC(C)C(=O)N1CCC(c2cc(-c3ccc(NC(=O)c4cn(C(C)C)c(=O)n(-c5ccccn5)c4=O)cc3)c3c(N)ncnn23)CC1 [Compound I maleate salt, N-(4-(4-Amino-7-(1-isobutyrylpiperidin-4-yl)pyrrolo[1,2-f][1,2,4]triazin-5-yl)phenyl)-1-isopropyl-2,4-dioxo-3-(pyridin-2-yl)-1,2,3,4-tetrahydropyrimidine-5-carboxamide maleate]

- IC50 [1]: ≤ 5 nM
- IC50 [2]: ≤ 5 nM
- IC50 [4]: 10 to 100 nM
SMILES: CC(C)C(=O)N1CCC(c2cc(-c3ccc(NC(=O)c4cn(C(C)C)c(=O)n(-c5ccccc5)c4=O)cc3)c3c(N)ncnn23)CC1 [Compound II hemi-sulfuric acid salt, N-(4-(4-Amino-7-(1-isobutyrylpiperidin-4-yl)pyrrolo[1,2-f][1,2,4]triazin-5-yl)phenyl)-1-isopropyl-2,4-dioxo-3-phenyl-1,2,3,4-tetrahydropyrimidine-5-carboxamide hemisulfate]
